# From US9480679B2, “Methods for treating malaria, tuberculosis and MAC diseases” (priority 2009, dated 2016)
# Several values for one entry are separate records, joined by “and”; a condition that tells them apart may be missing. Identical values can stand only once. Like-named read-outs stand apart in the source and are kept apart here. Marks after values point to notes of the source that are not given here.
# Tests used:
# P. falciparum NF54 [1] = test: In vitro P. falciparum 72 hour assay (48+24); format: cell-based; conditions: Plasmodium falciparum, NF54
# Procedure: EXAMPLE. In vitro and in vivo activity against different species of Plasmodium parasites. CEM-101 was tested against intra-erythrocytic forms of P. falciparum derived from asynchronous cultures of the strain […]. […] CEM-101 was followed for 120 h. CEM-101 has delayed activity when compared to other agents.
# In vitro P. falciparum data for CEM-101 in the 72 h Assay (48+24)
# [2] = tested on: P. falciparum lines Dd2 and 7G8 and azithromycin-resistant lines; test: Fidock lab 96 hours assay on P. falciparum lines; format: cell-based
# Excerpt: EXAMPLE. CEM101 is active when tested against Azi resistant strain (Fidock).
# [3] = tested on: luciferase expressing P. berghei liver stage parasites; test: Liver stage activity by in vivo imaging; conditions: mice, PO dosing at 40 mg/kg/d×3 days
# Procedure: Efficacy was measured by number of mice with delayed parasitemia and mice that were malaria free at day 31. Antimalarial liver stage activity was assessed in mice infected with luciferase expressing P. berghei parasites using an in vivo imaging system.
# M. avium = M. avium in vitro activity summary (MIC90, MBC); format: cell-based
# [4] = tested on: clinical XDR strains of M. tuberculosis; test: microbe, parasite or virus in culture; format: cell-based; conditions: Mycobacterium tuberculosis
# [5] = tested on: MTb growing inside macrophages; test: MTb inside infected macrophages, ATP readout; format: cell-based, M. tuberculosis; conditions: 1 μg/mL
# [6] = Systemic toxicity in mice with SC or PO dosing; format: in vivo; conditions: SC or PO dosing as high as 160 mg/kg/d×3 days
# Procedure: For blood stage infections, the minimum curative SC dose was 40 mg/kg/d×3 days, while 80 mg/kg/d×3 was the minimum active dose for PO route. In the P. berghei causal mouse model, CEM-101 was curative at 40 mg/kg/d×3 days with SC or PO dosing.
# P. falciparum NF54 [7] = test: In vitro P. falciparum 120 hour assay (96+24); format: cell-based; conditions: Plasmodium falciparum, NF54
# Procedure: EXAMPLE. In vitro and in vivo activity against different species of Plasmodium parasites. CEM-101 was tested against intra-erythrocytic forms of P. falciparum derived from asynchronous cultures of the strain […]. Parasite growth over 120 h was measured by the incorporation of radiolabelled [^3H]hypoxanthine (in hypoxanthine free culture medium) added after 96 h of drug incubation and 24 h prior to the termination of the test. CEM-101 was followed for 120 h. CEM-101 has delayed activity when compared to other agents.
# In vitro P. falciparum data for CEM-101 in the 120 h Assay (96+24)
# [8] = tested on: replicating M. tuberculosis; test: Aero RLU (Relative Light Units under aerobic conditions), replicating culture; format: cell-based; conditions: two experiments
# [9] = tested on: non-replicating M. tuberculosis; test: Low Oxygen Recovery Assay (LORA), non-replicating culture; format: cell-based; conditions: non-replicating culture (anaerobic); two experiments
# P. berghei = test: Murine P. berghei model, oral 1x or 4x 100 mg/kg; format: in vivo; conditions: mice
# Procedure: EXAMPLE. CEM-101 activity in infected mice.
# EXAMPLE. CEM-101 was tested in the murine P. berghei model as described by Vennerstrom et al. Nature 430(7002):900-904 (2004), the disclosure of which is incorporated herein by reference.
smiles,measurement,setting,value
"CC[C@H]1OC(=O)[C@@](C)(F)C(=O)[C@H](C)[C@@H](O[C@@H]2O[C@H](C)C[C@H](N(C)C)[C@H]2O)[C@](C)(OC)C[C@@H](C)C(=O)[C@H](C)[C@H]2N(CCCCn3cc(-c4cccc(N)c4)nn3)C(=O)O[C@]12C [CEM-101, solithromycin]",IC50,"P. falciparum NF54 [1]; 72 h assay (48+24), read-out: IC50 NF54 TEST 1",0.919 µg/mL
same,IC50,"P. falciparum NF54 [1]; 72 h assay (48+24), read-out: IC50 NF54 TEST 2",1.54 µg/mL
same,IC50,"P. falciparum NF54 [1]; 72 h assay (48+24), read-out: IC50 NF54 TEST 3",1.49 µg/mL
same,IC50,"P. falciparum NF54 [1]; 72 h assay (48+24), read-out: IC50 NF54 TEST 4",1.26 µg/mL
same,IC50,"P. falciparum NF54 [1]; 72 hour assay (48+24), read-out: IC50 NF54 Test 1",0.919 µg/mL
same,IC50,"P. falciparum NF54 [1]; 72 hour assay (48+24), read-out: IC50 NF54 Test 2",1.54 µg/mL
same,IC50,"P. falciparum NF54 [1]; 72 hour assay (48+24), read-out: IC50 NF54 Test 3",1.49 µg/mL
same,IC50,"P. falciparum NF54 [1]; 72 hour assay (48+24), read-out: IC50 NF54 Test 4",1.26 µg/mL
same,IC50,"[2]; Plasmodium falciparum, 96 h, line 7G8 (multidrug resistant), 96 hours, read-out: Mean IC50",18.5 nM
same,IC50,"[2]; Plasmodium falciparum, 96 h, line AZR 7G8-R1, 96 hours, read-out: Mean IC50",80.2 nM
same,IC50,"[2]; Plasmodium falciparum, 96 h, line AZR Dd2-R2, 96 hours, runs 1-3, read-out: IC50",73.2 nM
same,IC50,"[2]; Plasmodium falciparum, 96 h, line AZR Dd2-R2, 96 hours, read-out: Mean IC50",69.1 nM
same,IC50,"[2]; Plasmodium falciparum, 96 h, line Dd2 (multidrug resistant), 96 hours, read-out: Mean IC50",38.6 nM
same,IC50,"[2]; line AZR Dd2-R2, 96 hours, runs 1-3, read-out: IC50",64.5 nM and 69.7 nM
same,antimalarial activity against liver stage parasites by in vivo imaging,[3],No demonstrable antimalarial activity
same,MBC,"M. avium; Mycobacterium avium, all strains tested, read-out: MBC",2 µg/mL
same,MIC,"M. avium; Mycobacterium avium, susceptible phenotype, N=24, read-out: MIC",1 µg/mL
same,MBC (range),M. avium; N=30,2 (2) μg/mL
same,MIC90 (range),M. avium; N=30,1 (1) μg/mL
same,MBC,"M. avium; resistant phenotype, MBCs calculated for 4 of the resistant strains",2^a μg/mL
same,MIC,"M. avium; resistant phenotype, N=6",1 µg/mL
same,MBC,"M. avium; susceptible phenotype, N=24",2 µg/mL
same,MIC,"[4]; 168 h, strain OB005, 1 week",3.12 µg/mL
same,MIC,"[4]; 168 h, strain OB031, 1 week",0.049 µg/mL
same,MIC,"[4]; 168 h, strain OB076a, 1 week",0.049 µg/mL
same,MIC,"[4]; 168 h, strain OB076b, 1 week",0.049 µg/mL
same,MIC,"[4]; 168 h, strain OB082, 1 week",0.049 µg/mL
same,MIC,"[4]; 336 h, strain OB005, 2 weeks",12.5 µg/mL
same,MIC,"[4]; 336 h, strain OB019, 2 weeks",1.56 µg/mL
same,MIC,"[4]; 336 h, strain OB031, 2 weeks",0.78 to 1.56 µg/mL
same,MIC,"[4]; 336 h, strain OB062, 2 weeks",0.39 to 0.78 µg/mL
same,MIC,"[4]; 336 h, strain OB076a, 2 weeks",0.098 µg/mL
same,MIC,"[4]; 336 h, strain OB076b, 2 weeks",0.049 µg/mL
same,MIC,"[4]; 336 h, strain OB081, 2 weeks",12.5 µg/mL
same,MIC,"[4]; 336 h, strain OB082, 2 weeks",0.098 µg/mL
same,MIC,"[4]; strain OB031, after a week (as the cell number increased)",0.78 to 1.56 µg/mL
same,MIC,"[4]; strain OB031, initially",0.049 µg/mL
same,decrease in ATP of MTb released from infected treated cells,[5],10 fold
same,systemic toxicity,[6],No systemic toxicity
same,IC50,"P. falciparum NF54 [7]; 120 h assay (96+24), read-out: IC50 NF54",0.0024 µg/mL
same,IC50,"P. falciparum NF54 [7]; 120 hour assay (96+24), read-out: IC50 NF54 Test 1",< 0.156 µg/mL
same,IC50,"P. falciparum NF54 [7]; 120 hour assay (96+24), read-out: IC50 NF54 Test 2",< 0.015 µg/mL
same,IC50,"P. falciparum NF54 [7]; 120 hour assay (96+24), read-out: IC50 NF54 Test 3",0.0024 µg/mL
same,Aero RLU,[8],7.19 µM and 6.95 µM
same,LORA,[9],10.43 µM and 7.55 µM
same,outcome in murine malarial infection model,P. berghei,curative
same,Activity (%),"P. berghei; 1 × 100 mg/kg oral, DMSO",80.05%
